From article PMC6941823, “A dispensable paralog of succinate dehydrogenase subunit C mediates standing resistance towards a subclass of SDHI fungicides in Zymoseptoria tritici” (PLoS Pathogens, 2019)
Where two headings read alike, the source gives them in different places.

How the values were obtained:
[1] = target: WT-SQR (SDHC), IPO323 mitochondria (Zymoseptoria tritici, UniProt F9X9V6+F9XH52+O42772); assay: Succinate-quinone (SQR) SDHI sensitivity assay on purified mitochondria, IPO323; assay type: biochemical
Chain of WT-SQR (SDHC), IPO323 mitochondria (F9WWR1 entry or part of it): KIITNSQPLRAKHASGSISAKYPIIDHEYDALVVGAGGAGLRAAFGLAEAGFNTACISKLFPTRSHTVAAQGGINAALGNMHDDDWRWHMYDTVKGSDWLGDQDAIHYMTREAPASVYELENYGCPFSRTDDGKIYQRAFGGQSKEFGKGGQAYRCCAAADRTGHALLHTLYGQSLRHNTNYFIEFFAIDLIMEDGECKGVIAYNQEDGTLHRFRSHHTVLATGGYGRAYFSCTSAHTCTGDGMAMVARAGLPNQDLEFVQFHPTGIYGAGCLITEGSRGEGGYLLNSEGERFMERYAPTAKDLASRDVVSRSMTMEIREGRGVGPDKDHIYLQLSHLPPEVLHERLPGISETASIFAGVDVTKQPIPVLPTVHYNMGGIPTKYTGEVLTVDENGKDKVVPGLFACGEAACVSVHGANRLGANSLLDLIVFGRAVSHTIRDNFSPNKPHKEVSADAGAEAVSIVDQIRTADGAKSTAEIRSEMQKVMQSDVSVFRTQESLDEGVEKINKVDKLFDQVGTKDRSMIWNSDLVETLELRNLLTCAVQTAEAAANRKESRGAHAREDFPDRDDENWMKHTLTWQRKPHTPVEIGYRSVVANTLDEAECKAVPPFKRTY
Chain of WT-SQR (SDHC), IPO323 mitochondria (F9X9V6 entry or part of it): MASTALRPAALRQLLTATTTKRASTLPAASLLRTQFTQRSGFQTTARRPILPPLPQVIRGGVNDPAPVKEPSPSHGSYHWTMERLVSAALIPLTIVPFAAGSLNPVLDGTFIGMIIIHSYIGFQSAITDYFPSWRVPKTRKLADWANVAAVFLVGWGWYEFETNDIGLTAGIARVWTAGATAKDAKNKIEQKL
Chain of WT-SQR (SDHC), IPO323 mitochondria (O42772 19-297): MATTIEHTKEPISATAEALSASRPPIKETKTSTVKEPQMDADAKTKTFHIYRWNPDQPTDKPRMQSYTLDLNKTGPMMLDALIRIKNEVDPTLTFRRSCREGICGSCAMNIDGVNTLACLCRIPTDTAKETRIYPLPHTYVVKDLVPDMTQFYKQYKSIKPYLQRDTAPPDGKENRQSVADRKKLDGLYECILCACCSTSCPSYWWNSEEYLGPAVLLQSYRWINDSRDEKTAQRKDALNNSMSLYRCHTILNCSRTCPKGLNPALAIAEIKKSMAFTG
Chain of WT-SQR (SDHC), IPO323 mitochondria (F9XH52 entry or part of it): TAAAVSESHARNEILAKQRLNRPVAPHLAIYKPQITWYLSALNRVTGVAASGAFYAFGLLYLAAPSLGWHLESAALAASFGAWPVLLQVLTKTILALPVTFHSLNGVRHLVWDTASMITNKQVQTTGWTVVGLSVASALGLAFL
Description: (§1) Succinate-ubiquinone oxidoreductase (SQR) inhibition assays were performed on mitochondrial extracts from a panel of strains that were (i) either carrying a unique C-subunit encoding gene (ZtSDHC1, ZtSDHC1_A84I or Zt-SDHC3), or (ii) carrying two C-subunit encoding genes ZtSDHC1 and ZtSDHC3 (Table 1).
(§2) Biomass production, mitochondrial extraction and purification were performed as described in [14]. Succinate: ubiquinone/DCPIP sensitivity tests were performed as described in [14] with minor modification. The different mitochondrial suspensions were adjusted to similar initial velocity (1 OD595nm hour^-1) and inhibitor concentrations ranged between 0.047nM and 50μM with uniform 4x dilution steps (11 concentrations + DMSO control). Calculated absorbance slopes (OD/min) were used for IC50 calculations using GraphPad Prism 6.07 software non-linear curve fitting against log inhibitor concentrations.

[2] = target: SQR of 06STD024 (SDHC / altC) mitochondria (Zymoseptoria tritici, UniProt A0A1X7RQW2+F9X9V6+F9XH52+O42772); assay: Succinate-quinone (SQR) SDHI sensitivity assay on purified mitochondria, 06STD024; assay type: biochemical; conditions: for RF (resistance factor), 06STD024 (SDHC / altC): IC50 ratio compared to IPO323 values; for IC50: mitochondria of field isolate 06STD024, mean of three ± SD
Description: as §1
(§3) Biomass production, mitochondrial extraction and purification were performed as described in [14]. Succinate: ubiquinone/DCPIP sensitivity tests were performed as described in [14] with minor modification.

[3] = target: SQR (SDHC) of D024 SDHC3 KO mitochondria (Zymoseptoria tritici, UniProt F9X9V6+F9XH52+O42772); assay: Succinate-quinone (SQR) SDHI sensitivity assay on purified mitochondria, 06STD024 SDHC3 KO; assay type: biochemical; conditions: for RF (resistance factor), D024 SDHC3 KO (SDHC): IC50 ratio compared to IPO323 values; for IC50: mitochondria of 06STD024 ZtSDHC3 deletion mutant, mean of three ± SD
Chain of SQR (SDHC) of D024 SDHC3 KO mitochondria (F9XH52 44-187): as the sequence (F9XH52 entry or part of it) above
Chain of SQR (SDHC) of D024 SDHC3 KO mitochondria (O42772 19-297): as the sequence (O42772 19-297) above
Chain of SQR (SDHC) of D024 SDHC3 KO mitochondria (F9X9V6 1-193): as the sequence (F9X9V6 entry or part of it) above
Chain of SQR (SDHC) of D024 SDHC3 KO mitochondria (F9WWR1 29-643 partner): as the sequence (F9WWR1 entry or part of it) above
Description: as §1, §2

[4] = target: altC-SQR (altC) of D024 SDHC1 KO mitochondria (Zymoseptoria tritici, UniProt A0A1X7RQW2+F9X9V6+O42772); assay: Succinate-quinone (SQR) SDHI sensitivity assay on purified mitochondria, 06STD024 SDHC1 KO; assay type: biochemical; conditions: for RF (resistance factor), D024 SDHC1 KO (altC): IC50 ratio compared to IPO323 values; for IC50: mitochondria of 06STD024 ZtSDHC1 deletion mutant (pure altC-SQR), mean of three ± SD
Description: as §1, §3

[5] = system: SQR (SDHC / altC) of IPO323 pTet::SDHC3 transformant, induced; assay: Succinate-quinone (SQR) SDHI sensitivity assay on purified mitochondria, IPO323 pTet::SDHC3 induced; assay type: biochemical, Zymoseptoria tritici; conditions: IPO323 pTet::SDHC3 transformant grown in the absence of doxycycline; mean of three ± SD
Description: as §1, §3

[6] = target: SQR (SDHC / altC) of IPO323 pTet::SDHC3 transformant, repressed (Zymoseptoria tritici, UniProt A0A1X7RQW2+F9X9V6+F9XH52+O42772); assay: Succinate-quinone (SQR) SDHI sensitivity assay on purified mitochondria, IPO323 pTet::SDHC3 repressed; assay type: biochemical; conditions: for RF (resistance factor), pTet Repressed (SDHC / altC): IC50 ratio compared to IPO323 values; for IC50: IPO323 pTet::SDHC3 transformant grown in presence of 30 mg.L^-1 doxycycline, mean of three ± SD
Chain of SQR (SDHC / altC) of IPO323 pTet::SDHC3 transformant, repressed (F9XH52 44-187): as the sequence (F9XH52 entry or part of it) above
Chain of SQR (SDHC / altC) of IPO323 pTet::SDHC3 transformant, repressed (O42772 20-297): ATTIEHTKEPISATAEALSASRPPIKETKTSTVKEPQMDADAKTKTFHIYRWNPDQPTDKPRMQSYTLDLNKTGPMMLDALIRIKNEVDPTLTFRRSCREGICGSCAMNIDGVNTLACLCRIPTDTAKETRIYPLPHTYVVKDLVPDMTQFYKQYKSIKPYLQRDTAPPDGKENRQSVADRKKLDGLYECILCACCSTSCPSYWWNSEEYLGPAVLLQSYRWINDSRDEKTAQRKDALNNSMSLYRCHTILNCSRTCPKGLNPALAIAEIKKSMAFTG
Chain of SQR (SDHC / altC) of IPO323 pTet::SDHC3 transformant, repressed (F9X9V6 1-193): as the sequence (F9X9V6 entry or part of it) above
Chain of SQR (SDHC / altC) of IPO323 pTet::SDHC3 transformant, repressed (A0A1X7RQW2 36-181): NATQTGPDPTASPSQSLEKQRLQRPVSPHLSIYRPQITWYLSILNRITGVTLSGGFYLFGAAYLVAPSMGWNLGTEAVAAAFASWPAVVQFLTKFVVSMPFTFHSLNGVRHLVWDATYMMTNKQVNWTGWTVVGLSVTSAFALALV
Chain of SQR (SDHC / altC) of IPO323 pTet::SDHC3 transformant, repressed (F9WWR1 41-643 partner): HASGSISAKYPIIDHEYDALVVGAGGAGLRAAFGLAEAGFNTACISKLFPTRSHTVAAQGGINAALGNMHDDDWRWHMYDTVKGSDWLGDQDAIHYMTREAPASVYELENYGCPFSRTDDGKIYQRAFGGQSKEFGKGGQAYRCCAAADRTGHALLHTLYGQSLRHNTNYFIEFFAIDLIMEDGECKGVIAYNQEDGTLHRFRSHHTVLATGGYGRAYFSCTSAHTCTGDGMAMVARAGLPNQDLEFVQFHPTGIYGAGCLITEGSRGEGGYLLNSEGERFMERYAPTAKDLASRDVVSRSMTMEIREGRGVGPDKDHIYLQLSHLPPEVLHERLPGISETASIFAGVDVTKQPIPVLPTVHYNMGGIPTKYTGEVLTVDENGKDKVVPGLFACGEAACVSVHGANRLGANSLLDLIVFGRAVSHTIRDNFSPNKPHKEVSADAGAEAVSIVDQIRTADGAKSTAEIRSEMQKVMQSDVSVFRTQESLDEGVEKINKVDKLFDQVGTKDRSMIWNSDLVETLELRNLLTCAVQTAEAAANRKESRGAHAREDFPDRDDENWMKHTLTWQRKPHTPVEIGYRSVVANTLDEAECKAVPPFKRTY
Description: as §1, §3

[7] = system: Zymoseptoria tritici field and genetically modified strains; assay: Liquid culture assay for fungicide sensitivity determination; assay type: cell-based; conditions: Zymoseptoria tritici, liquid culture sensitivity
Description: Sensitivity towards commercial fungicides was determined for a set of 99 SHA-SDHI-naïve Z. tritici field isolates sampled in Europe between 2006 and 2009. The EC50 of these isolates was determined in liquid growth assays and the data obtained compared for each possible pair of SDHI fungicides (cross-resistance (XR) plots, Fig 1). […] Comparative succinate-quinone reductase (SQR) enzyme inhibition tests were performed with mitochondria extracted from a panel of SHA-SDHIs tolerant and sensitive isolates.
In order to characterize in more depth the mechanisms driving sensitivity differences across the isolates, a subset of eight isolates carrying the ZtSDHC3 gene was analyzed for their sensitivity to SDHIs, alt-SDHC expression and splicing patterns. Liquid culture growth sensitivity tests were performed to determine EC50s for this set of isolates towards a wide range of commercial and research SDHIs (S5 Table).
Pre-culture of the inoculum and fungicide sensitivity tests were performed following previously described procedures. Different ranges of inhibitor concentrations were used for population monitoring and for the detailed phenotyping of a selected set of individual field isolates and genetically modified strains. For fungicide sensitivity monitoring of European field populations, final inhibitors concentrations were between 100 mg.L^-1 and 0.0001 mg.L^-1 with uniform 10x dilution steps (7 inhibitor concentrations + DMSO control). For refined sensitivity analysis of a smaller panel of isolates final inhibitor concentrations ranged between 0.5 mM and 0.47 nM with uniform 4x dilution factor steps (11 inhibitor concentrations+ DMSO control).

[8] = system: Zymoseptoria tritici isolates; assay: Growth tests on solid agar at discriminatory fungicide concentrations; assay type: cell-based; conditions: for Growth phenotype on SDHI-amended plate: AE agar, isofetamid 5 mg.L^-1, 10 DPI (procedure of Fig 6)
From the text: Fig 6 Resistance to SHA-SDHIs in Z. tritici EU populations. […] Sensitivity data are sorted by genotype according to the presence of the ZtSDHC3 gene. ** p value of 0.0029 in Welch’s corrected unpaired t-test. (B) Solid agar growth of a collection of 93 Z. tritici isolates sampled in 2009 (same set as above). Individual strains from this collection are boxed and numbered 1 to 93. Boxes A and B correspond to reference resistant strains 06STD024 and 07STGB009 respectively. Box C corresponds to IPO323 reference sensitive isolate. The yellow framed boxes correspond to strains carrying the ZtSDHC3 gene. Yellow arrow designates strain 09STIR20.1 (number 78) carrying a non-functional alt-SDHC (frameshift, S6 Table).
A large scale spotting assay of 96 isolates (Fig 6) was performed using the V&P 96 floating pin tool VP408FP6 (V&P Scientific), equipped with flat tip FP6 pins of 1.58 mm diameter (resulting in approx. 0.4 μl transfer volume). Source cultures for cell spotting were grown in 100 μl YPD liquid medium in a 96 well flat bottom plate (Corning, 3370) at 18°C for 11 days (average cell density of 3.5·10^6/ml), then diluted 1:2x in fresh YPD medium and incubated for another 1.5 h before transfer with the pin tool (approx. 700 cells per spot) onto AE agar with or without fungicide. Plates were incubated at 20°C in the dark for up to 18 days. Smaller scale spotting assays (Figs 4 and 8) were performed using 5 days V8-agar plates inoculums adjusted to 2.10^6 spores.mL^-1 in water and diluted in steps of 3. 2μL of spore suspension was spotted on the plates, and the plates were incubated shielded from light at 21°C for 6 days.

[9] = read-out: EC50 (nM) Mean, strain 06STD024
[10] = read-out: EC50 (nM) Mean, strain 07STGB009
[11] = read-out: EC50 (nM) Mean, strain 09STD041
[12] = read-out: EC50 (nM) Mean, strain 09STD053
[13] = read-out: EC50 (nM) Mean, strain 09STF011
[14] = read-out: EC50 (nM) Mean, strain 09STF037
[15] = read-out: EC50 (nM) Mean, strain 09STF112
[16] = read-out: EC50 (nM) Mean, strain 09STIR20.3
[17] = read-out: EC50 (nM) Mean, strain Flu21 (SDHC1_A84I)
[18] = read-out: EC50 (nM) Mean, strain IPO323
[19] = read-out: EC50 (nM) Mean, strain IPO94269
[20] = read-out: EC50 (nM) Mean, strain KO_SDHC1_T1
[21] = read-out: EC50 (nM) Mean, strain KO_SDHC1_T3
[22] = read-out: EC50 (nM) Mean, strain KO_SDHC3_T4
[23] = read-out: EC50 (nM) Mean, strain KO_SDHC3_T13
[24] = read-out: EC50 (nM) Mean, strain pTet::SDHC3_I78A_T1
[25] = read-out: EC50 (nM) Mean, strain pTet::SDHC3_I78A_T5
[26] = read-out: EC50 (nM) Mean, strain pTet::SDHC3_I78A_T15
[27] = read-out: EC50 (nM) Mean, strain pTet::SDHC3_I78A_T35
[28] = read-out: EC50 (nM) Mean, strain pTet::SDHC3_T1
[29] = read-out: EC50 (nM) Mean, strain pTet::SDHC3_T2
[30] = read-out: EC50 (nM) Mean, strain pTet::SDHC3_T3
[31] = read-out: EC50 (nM) Mean, strain pTet::SDHC3_T7

Row | Structure (SMILES) | IC50 [1] [nM] | RF (resistance factor), 06STD024 (SDHC / altC) [2] | IC50 [2] [nM] | RF (resistance factor), D024 SDHC3 KO (SDHC) [3] | IC50 [3] [nM] | RF (resistance factor), D024 SDHC1 KO (altC) [4] | IC50 [4] [nM] | IC50 [5] [nM] | RF (resistance factor), pTet Repressed (SDHC / altC) [6] | IC50 [6] [nM] | EC50 [7, 9] [nM] | EC50 [7, 10] [nM] | EC50 [7, 11] [nM] | EC50 [7, 12] [nM] | EC50 [7, 13] [nM] | EC50 [7, 14] [nM] | EC50 [7, 15] [nM] | EC50 [7, 16] [nM] | EC50 [7, 17] [nM] | EC50 [7, 18] [nM] | further results
1 | O=C(Nc1ccccc1-c1ccc(Cl)cc1)c1cccnc1Cl [Boscalid] | 17 ± 3.7 | 3.6 | 61.9 ± 16 | 1.0 | 16.4 ± 2.4 | 3.2 | 54.4 ± 12.9 | 40.3 ± 2.7 | 1.8 | 29.8 ± 4 | 1180 | 514 | 644 | 512 | 581 | 591 | 720 | 798 | 3020 | 384 | EC50 [7, 19]: 853 nM; EC50 [7, 20]: 2160 nM; EC50 [7, 21]: 2050 nM; EC50 [7, 22]: 637 nM; EC50 [7, 23]: 681 nM; EC50 [7, 24]: 776 nM; EC50 [7, 25]: 1680 nM; EC50 [7, 26]: 768 nM; EC50 [7, 27]: 270 nM; EC50 [7, 28]: 1300 nM; EC50 [7, 29]: 1420 nM; EC50 [7, 30]: 1450 nM; EC50 [7, 31]: 1460 nM
2 | Cc1cc(OC(C)C)ccc1C(=O)C(C)(C)NC(=O)c1sccc1C [Isofetamid] | 0.9 ± 0.1 | – | – | – | – | – | > 50000 | – | – | – | – | – | – | – | – | – | – | – | – | – | Growth on isofetamid-supplemented agar plate ([8]; isolate 09STIR20.1 (ZtSDHC3 frameshift), 10 DPI, 5 mg.L^-1): did not grow; Growth phenotype on SDHI-amended plate ([8]; strain 06STD024): Very strong; Growth phenotype on SDHI-amended plate ([8]; strain 07STGB009): Very strong; Growth phenotype on SDHI-amended plate ([8]; strain 09STD041): Strong; Growth phenotype on SDHI-amended plate ([8]; strain 09STD053): Strong; Growth phenotype on SDHI-amended plate ([8]; strain 09STF011): Strong; Growth phenotype on SDHI-amended plate ([8]; strain 09STF037): Weak; Growth phenotype on SDHI-amended plate ([8]; strain 09STF112): Strong; Growth phenotype on SDHI-amended plate ([8]; strain 09STIR20.3): Weak; Growth phenotype on SDHI-amended plate ([8]; strain IPO323): No; Growth phenotype on SDHI-amended plate ([8]; strain IPO94269): No
3 | Cn1cc(C(=O)NCCc2ccc(Cl)cc2Cl)c(C(F)F)n1 [Compound 1] | 113 ± 10.9 | – | 875 ± 159 | 0.7 | 79.4 ± 7.6 | – | 940 ± 238 | 484 ± 42.8 | – | 152 ± 17.5 | 14700 | 15700 | 6050 | 6070 | 7870 | 4910 | 8980 | 4360 | 49100 | 3580 | EC50 [7, 19]: 2710 nM; EC50 [7, 20]: 125000 nM; EC50 [7, 21]: 78800 nM; EC50 [7, 22]: 9090 nM; EC50 [7, 23]: 7200 nM; EC50 [7, 24]: 4610 nM; EC50 [7, 25]: 7960 nM; EC50 [7, 26]: 3300 nM; EC50 [7, 27]: 4430 nM; EC50 [7, 28]: 33300 nM; EC50 [7, 29]: 35300 nM; EC50 [7, 30]: 22900 nM; EC50 [7, 31]: 35300 nM
4 | CC(C)CC(C)c1sccc1NC(=O)c1cn(C)nc1C(F)(F)F (stereo not shown) [Penthiopyrad] | 1.4 ± 0.3 | 1.4 | 2 ± 0.8 | 1.1 | 1.5 ± 0.3 | 1.2 | 1.6 ± 0.7 | 1.8 ± 0.1 | 1.4 | 1.9 ± 0.4 | – | – | – | – | – | – | – | – | – | – | –
5 | CON(C(=O)c1cn(C)nc1C(F)F)[C@@H](C)Cc1ccc(Cl)cc1Cl [Compound 3] | 0.7 ± 0.2 | – | 26.4 ± 1.2 | 1.2 | 0.8 ± 0.13 | – | 22.7 ± 0.8 | – | – | – | – | – | – | – | – | – | – | – | – | – | –
